Results from patent publication US12496288B2, “Vaginal tablet formulation” (Gedea Biotech AB, priority 2019, dated 2025).

Assays:
Candida albicans = details: preclinical studies; WO 2017/174731; cited from earlier work
[1] = system: several strains of bacteria; test: Biofilm of bacteria; assay type: cell-based; details: found by the present inventors
[2] = system: different Candida species; test: Biofilm of Candida species; assay type: cell-based; details: found by the present inventors
[3] = oral doses between 3 g and 50 g; cited from earlier work
[4] = system: different Candida species; details: WO 2017/174731, WO 2019/068862; cited from earlier work
[5] = IPCS 1999; 21CFR184.1318; cited from earlier work
[6] = system: several strains of bacteria; details: WO 2017/174731, WO 2019/068862; cited from earlier work

Compound | Candida albicans present in the hyphal, i.e. the pathogenic form (Candida albicans) | formation of biofilm [1] | formation of biofilm [2] | signs of toxicity [3] | presence / formation of biofilm [4] | carcinogenicity, teratogenicity, or genotoxicity [5] | presence of biofilm [6]
O=C1O[C@H](CO)[C@@H](O)[C@H](O)[C@H]1O [GDL, glucono-δ-lactone] | significant reduction | has an effect on the formation of biofilm | has an effect on the formation of biofilm | no signs of toxicity | significantly reduced |  | 
O=C(O)[C@H](O)[C@@H](O)[C@H](O)[C@H](O)CO [gluconic acid] |  |  |  |  | reduces the presence of biofilm | no evidence | reduces the presence of biofilm
